Assay results: patent US8916527B2, “Antibiotic macrocycle compounds and methods of manufacture and use thereof” (Optimer Pharmaceuticals, Inc., priority 2007, dated 2014)
Read-outs that look alike come from different tables or passages of the source.

How the values were obtained:
[1] = tested on: Bifidiobacterium longum, ATCC 15707; experiment: MIC, agar dilution method; format: cell-based; settings: Table 1 gram positive GI flora
[2] = tested on: Enterococcus faecium, Vancomycin resistant clinical strain ORG#360; experiment: MIC, microbroth dilution method
[3] = tested on: Micromonas (formerly Peptostreptococcus) micros, ATCC 33270; experiment: MIC, agar dilution method; format: cell-based; settings: Parvimonas micra, ATCC33270; Micromonas micros ATCC 33270
[4] = tested on: Peptostreptococcus anaerobius, ATCC 27337; experiment: MIC, agar dilution method; format: cell-based; settings: ATCC27337
[5] = tested on: Staphylococcus epidennidis, clinical strain ORG#365; experiment: MIC, microbroth dilution method
[6] = tested on: Lactobacillus acidophilus, ATCC 4356; experiment: MIC, agar dilution method; format: cell-based; settings: ATCC4356
[7] = tested on: Finegoldia (formerly Peptococcus) magna, ATCC 29328; experiment: MIC, agar dilution method; format: cell-based; settings: Finegoldia magna ATCC 29328
[8] = tested on: gram positive bacteria (C. difficile, C. perfringenes, B. longum, F. magna, P. asaccharolyticus, P. anaerobius, M. micros, L. casei); format: cell-based
[9] = in vivo, po
[10] = tested on: Staphylococcus aureus, ATCC 33591 (Methicilin resistant); experiment: MIC, microbroth dilution method
[11] = tested on: E. faecium; experiment: MIC profiling; settings: Enterococcus faecium
[12] = tested on: C. difficile ATCC strain 700057; experiment: Effect of fecal material on in vitro activity, microbroth dilution MIC; format: cell-based; settings: for MIC: Clostridioides difficile
[13] = tested on: Enterococcus faecium, Vancomycin resistant clinical strain ORG#534; experiment: MIC, microbroth dilution method
[14] = tested on: Enterococcus faecium, ATCC 19434; experiment: MIC, microbroth dilution method
[15] = tested on: Clostridium perfringens, ATCC 13124; experiment: microbe, parasite or virus in culture; format: cell-based; settings: ATCC13124
[16] = tested on: Streptococcus pneumoniae, ATCC 49619; experiment: MIC, microbroth dilution method; settings: ATCC49619
[17] = physchem; format: physicochemical; settings: water; read-out: Aqueous solubility
[18] = tested on: Streptococcus pyogenes, ATCC 19615; experiment: MIC, microbroth dilution method
[19] = tested on: Staphylococcus aureus, ATCC 29213; experiment: MIC, microbroth dilution method
[20] = tested on: Staphylococcus aureus, Methicilin resistant clinical strain ORG#578; experiment: MIC, microbroth dilution method
[21] = tested on: ORG 84 E. faecium ATCC 700221 VRE; experiment: MIC, aerobic panel, microbroth dilution method; settings: Enterococcus faecium, read-out: Aerobic Panel MIC
[22] = tested on: Peptoniphilus (formerly Peptococcus) asaccharolyticus, ATCC 29743; experiment: MIC, agar dilution method; format: cell-based; settings: Peptoniphilus asaccharolyticus ATCC 29743
[23] = tested on: ORG 83 E. faecalis ATCC 29212; experiment: MIC, aerobic panel, microbroth dilution method; settings: Enterococcus faecalis, ATCC29212, read-out: Aerobic Panel MIC
[24] = tested on: ORG 150 B. fragilis 25285; experiment: MIC, anaerobic panel, agar dilution method; format: cell-based; settings: Bacteroides fragilis, Table 3, read-out: MIC, panel of anaerobic bacteria
[25] = tested on: Enterococcus faecium, Vancomycin resistant clinical strain ORG#364; experiment: MIC, microbroth dilution method
[26] = tested on: ORG 99 S. epidermidis ATCC 12228; experiment: MIC, aerobic panel, microbroth dilution method; settings: Staphylococcus epidermidis, ATCC12228, read-out: Aerobic Panel MIC
[27] = tested on: S. aureus; experiment: MIC profiling; settings: Staphylococcus aureus
[28] = tested on: Lactobacillus. casei, ATCC 393; experiment: MIC, agar dilution method; format: cell-based; settings: Lacticaseibacillus casei, ATCC393
[29] = tested on: Lactobacillus rhamnosus, ATCC 7496; experiment: MIC, agar dilution method; format: cell-based
[30] = tested on: Clostridium difficile, ATCC 700057; experiment: MIC, agar dilution method; format: cell-based; settings: Clostridioides difficile, ATCC700057
Method: (§1) Agar Dilution Method: (1)
(§2) This method was used for anaerobic organisms (Bacteroides, Clostridium, Bifidiobacteria, Prevotella, Fusobacterium, Peptococcus, Peptostreptococcus, Veillonella) and microaerophilic Lactobacillus spp, all of which were purchased form American Type Culture Collection (ATCC):
(§3) 1. Two fold dilutions of compounds were made in Brucella agar supplemented with hemin, vitamin K and 5% laked sheep blood to achieve a final concentration range from 0.016 μg/mL to 16 μg/mL.
(§4) 3. Plates were incubated in an anaerobic chamber at 35° C. for 48 hours. For the Lactobacillus strains, Mueller Hinton Agar and an incubation atmosphere of 5% CO2 were used.
(§5) 4. The lowest concentration of an antibiotic showing no growth or marked reduction in growth was read as the MIC.

[31] = tested on: Clostridium difficile, ATCC 43255; experiment: MIC, agar dilution method; format: cell-based; settings: Clostridioides difficile, ATCC43255
Method: as §1, §2, §3, §4, §5

## CCc1c(Cl)c(O)c(Cl)c(O)c1C(=O)O[C@H]1[C@H](O)[C@H](OC)[C@H](OC/C2=C\C=C\C[C@H](O)/C(C)=C/[C@H](CC)[C@@H](O[C@@H]3OC(C)(C)[C@@H](O)[C@H](O)[C@@H]3O)/C(C)=C/C(C)=C/C[C@@H]([C@@H](C)O)OC2=O)O[C@@H]1C [Formula II]
[1]
  MIC: 1 µg/mL
[2]
  MIC: > 64 µg/mL
[3]
  MIC: 1 µg/mL
[4]
  MIC: 0.25 µg/mL
[5]
  MIC: 64 µg/mL
[6]
  MIC: > 16 µg/mL
[7]
  MIC: 8 µg/mL
[8]
  MIC values relative to those of OPT-80: four to sixteen fold greater
[9]
  levels detected in plasma: most of which fell below the limit of quantification
[10]; ATCC33591
  MIC: > 64 µg/mL
[10]; ATCC33591 / MRSA, read-out: Aerobic Panel MIC
  MIC: > 64 µg/mL
[11]
  MIC: > 16 µg/mL
[12]; Brucella broth with feces vs Brucella broth only, C. difficile ATCC 700057
  Fold increase in MIC: 4x
[12]; C. difficile
  activity against C. difficile compared with vancomycin: as active as vancomycin
[12]; C. difficile ATCC strain 700057
  fold increase in MIC values in the presence of 5% fecal material: four fold
[12]; ATCC700057, C. difficile ATCC strain 700057, read-out: MIC in the presence of 5% fecal material
  MIC: 4 µg/mL
[12]; ATCC700057, Diluent Brucella broth only, C. difficile ATCC 700057, read-out: MIC
  MIC: 1 µg/mL
[12]; ATCC700057, Diluent Brucella broth with feces (5% fecal slurry), C. difficile ATCC 700057, read-out: MIC
  MIC: 4 µg/mL
[13]
  MIC: > 64 µg/mL
[14]; ATCC19434
  MIC: > 64 µg/mL
[14]; ATCC19434, read-out: Aerobic Panel MIC
  MIC: > 64 µg/mL
[15]
  MIC: 1 µg/mL
[16]
  MIC: > 64 µg/mL
[17]
  solubility: ~300 mg/mL
[18]; ATCC19615
  MIC: > 64 µg/mL
[18]; ATCC19615, read-out: Aerobic Panel MIC
  MIC: > 32 µg/mL
[19]; ATCC29213
  MIC: > 64 µg/mL
[19]; ATCC29213 / MSSA, read-out: Aerobic Panel MIC
  MIC: > 64 µg/mL
[20]
  MIC: > 64 µg/mL
[21]
  MIC: > 32 µg/mL
[22]
  MIC: 4 µg/mL
[23]
  MIC: 16 to 64 µg/mL
[24]
  MIC: > 16 µg/mL
[25]
  MIC: 64 µg/mL
[26]
  MIC: > 32 µg/mL
[27]
  MIC: > 16 µg/mL
[28]
  MIC: 8 µg/mL
[29]; Lacticaseibacillus rhamnosus, ATCC7496, L. rhamnosus, read-out: MIC
  MIC: > 16 µg/mL
[29]; Lactobacillus rhamnosus ATCC 7496
  MIC: >16 µg/mL
[30]; Clostridium difficile ATCC 700057, Table 1 gram positive GI flora, read-out: MIC
  MIC: 2 µg/mL
[30]; ORG 830 C. difficile ATCC 700057, Table 3, read-out: MIC, panel of anaerobic bacteria
  MIC: 0.5 to 1 µg/mL
[31]
  MIC: 4 µg/mL

## CN[C@H](CC(C)C)C(=O)N[C@H]1C(=O)N[C@@H](CC(N)=O)C(=O)N[C@H]2C(=O)N[C@H]3C(=O)N[C@H](C(=O)N[C@H](C(=O)O)c4cc(O)cc(O)c4-c4cc3ccc4O)[C@H](O)c3ccc(c(Cl)c3)Oc3cc2cc(c3O[C@@H]2O[C@H](CO)[C@@H](O)[C@H](O)[C@H]2O[C@H]2C[C@](C)(N)[C@H](O)[C@H](C)O2)Oc2ccc(cc2Cl)[C@H]1O [Vancomycin, reference compound]
[12]
  Fold increase in MIC: 4x
  fold increase in MIC values in the presence of 5% fecal material: four fold
[12]; ATCC700057, read-out: MIC in the presence of 5% fecal material
  MIC: 8 µg/mL
